The source of these data is patent US11535633B2, “Fused tricyclic heterocycle compounds and therapeutic uses thereof” (Jiangsu Hengrui Medicine Co., Ltd., priority 2018, dated 2022).

Test [1] concerns the target T1, STING in THP1-Dual KI-hSTING-R232 cells (Homo sapiens, UniProt Q86WV6, H232R).
T1 construct: host or cells: THP1-Dual KI-hSTING-R232 cells (human monocytic THP-1 reporter line)
In words: Human THP1 reporter cell assay (IRF luciferase reporter). The format is cell-based. The settings on record: 24 hours incubation. The procedure:
Test Example 2. Human THP1 Reporter Cell Assay
• 1. Human THP1-Dual KI-hSTING-R232 Cells (InvivoGen, Cat. #thpd-r232) • 2. QUANTI-LUC (InvivoGen, Cat. #rep-qlc2) • 3. Media for cell culture and compound dilution: RPMI with high glucose and glutamine (Genesee, Cat. #25-506), 10% fetal bovine serum (Life Technologies, Cat. #10082147), 25 mM HEPES (Genesee, Cat. #25-534), 100 μg/ml Normocin (InvivoGen, Cat. #ant-nr-2), 10 μg/ml blasticidin (InvivoGen, Cat. #ant-bl-05), 100 μg/ml Zeocin (InvivoGen, Cat. #ant-zn-5p) and Penicillin-Streptomycin (100×) (Life Technologies, Cat. #15140122) • 4. Infinite M1000 plate reader (TECAN) Experimental Procedure
Activation of STING in THP1-Dual KI-hSTING-R232 cells was determined by measuring the luminescence signal resulting from the expression of the IRF luciferase reporter gene. All reagent preparation and assay procedures were conducted according to the protocols provided by InvivoGen. In brief, test compounds and cells (1×10^5 cells per well) were dispensed into 96-well plates with a final volume per well of 150 μl. Plates were incubated in a humidified, 5% CO2 incubator at 37° C. for 24 hours. The expression level of the reporter gene was measured by transferring 20 μl of the supernatant to a non-transparent 96-well plate to which 50 μl of QUANTI-LUC was dispensed into each well. The resulting luminescence signal was immediately read using a TECAN plate reader. The background luminescence signal from media was subtracted. The fold induction effect of the luminescence signal at each compound concentration was determined relative to controls that lack compound treatment. The plot of fold induction effect versus the log of compound concentration was fit in GraphPad Prism with a 4-parameter concentration response equation to calculate EC50 and Emax.
Activation of STING in THP1 of the compounds in the present invention was determined by the above assay, and EC50 values are shown in the following table 2.

The target in test [2] is T2, hSTING c-terminal domain (purified hSTING aa154-342) (Homo sapiens, UniProt Q86WV6).
T2 construct: Purified hSTING (aa154-342)
In words: Thermal shift assay for measuring the relative binding affinity to hSTING c-terminal domain. The settings on record: Tm of sample minus mean Tm of negative control (buffer, 2% DMSO), SYPRO Orange. The procedure: Test Example 1. Thermal Shift Assay for Measuring the Relative Binding Affinity to hSTING c-Terminal Domain
From each of the 10 mM stock solutions of compounds in DMSO, dilutions are made to create samples with three concentrations 10 mM, 5 mM and 2.5 mM. From these dilutions a final 50 fold dilution is made into assay buffer, giving concentrations of 200 μM, 100 μM, and 50 μM. From each of the buffer dilutions, 5 μL is added to the 384 well assay plate. A positive control is setup with cGAMP using the same dilution scheme as the ligands. A baseline thermal shift for the negative control is determined using buffer and 2% DMSO.
An aliquot of protein is thawed on ice and SYPRO orange reagent is brought to room temperature. The 5000× SYPRO orange stock is diluted in assay buffer to a concentration of 10×. Protein is diluted to a concentration of 10 μM in the prepared buffer/dye solution. Five micro-liters of protein/buffer/dye solution is added to each of the sample and control wells, and the plate is sealed with the provided films. The plate is centrifuged for 5 min at 20° C. at 1000 rpm.
On the Light Cycler instrument, measurements are made over a temperature gradient from 20° C. to 99° C. at 0.07° C./s and data acquisitions collected at a rate of 8/° C. is used to measure the change in fluorescence as a function of temperature. Data analysis is performed using the Roche Light Cycler Software to determine the melting temperature (Tm ° C.) of each sample. A mean Tm ° C. for the negative control is calculated and subtracted from each of the samples to generate the ΔTm ° C. values for each of the ligands.
The relative binding affinity to hSTING c-terminal domain of the compounds of the present invention was determined by the above assay, and ΔTm ° C. values are shown in the following table 1.

In the next test the test system is Human PBMC cells. Kind of test: IFNβ secretion in human PBMC. The format is cell-based. The note with it: IFNβ in supernatant by ELISA, 5 hours incubation. The procedure:
Test Example 3. IFNβ Secretion in Human PBMC
• 1. Human PBMC cells (STEMCELL Technologies) • 2. Lymphocyte Medium (Zenbio) • 3. Culture and compound dilution media: RPMI with high glucose and glutamine (Genesee, Cat. #25-506), 10% fetal bovine serum (Life Technologies, Cat. #10082147), 100 μg/ml Normocin (InvivoGen, Cat. #ant-nr-2) and Penicillin-Streptomycin (100×) (Life Technologies, Cat. #15140122) • 4. Human IFNβ Quantikine ELISA kit (R&D systems) • 5. Infinite M1000 plate reader (TECAN) Experimental Procedure
Cryopreserved peripheral blood human mononuclear cells (PBMCs) were rapidly thawed and resuspended in Lymphocyte Media and centrifuged at 500×g for 5 minutes. The supernatant was removed and the cell pellets were gently resuspended in cell culture and compound dilution media. Human PBMC cells were plated in a 96-well format at a concentration of 1.5×10^5 cells per well. The test compounds, at varying concentrations, or vehicle control (<0.3% DMSO) were mixed with the cells giving a final volume of 150 μl per well. The plates were incubated for 5 hours in a humidified, 5% CO2 incubator at 37° C. After incubation, the human IFNβ in the supernatant and the IFNβ standard controls were measured using human IFNβ Quantikine ELISA kit according to the manufacturer's protocol. The absorbance at 450 nm was measured with Infinite M1000 plate reader and corrected by background reading at 540 nm of each well. The amount of […] based on the standard curves. The plot of IFNβ concentration versus the log of compound concentration was fit in GraphPad Prism with a 4-parameter concentration response equation to calculate EC50 and Emax.

T1 sequence (Q86WV6 whole entry H232R): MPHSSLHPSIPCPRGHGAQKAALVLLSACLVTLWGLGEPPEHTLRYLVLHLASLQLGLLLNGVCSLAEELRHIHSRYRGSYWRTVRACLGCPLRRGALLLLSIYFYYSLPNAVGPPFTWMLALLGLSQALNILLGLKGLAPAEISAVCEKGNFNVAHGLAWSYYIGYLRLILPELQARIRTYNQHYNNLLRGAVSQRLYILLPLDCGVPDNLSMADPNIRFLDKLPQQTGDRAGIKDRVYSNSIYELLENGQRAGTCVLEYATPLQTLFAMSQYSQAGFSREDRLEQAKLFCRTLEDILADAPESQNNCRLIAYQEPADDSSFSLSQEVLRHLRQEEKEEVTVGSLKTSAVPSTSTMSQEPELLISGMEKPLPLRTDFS
T2 sequence (Q86WV6 154-342): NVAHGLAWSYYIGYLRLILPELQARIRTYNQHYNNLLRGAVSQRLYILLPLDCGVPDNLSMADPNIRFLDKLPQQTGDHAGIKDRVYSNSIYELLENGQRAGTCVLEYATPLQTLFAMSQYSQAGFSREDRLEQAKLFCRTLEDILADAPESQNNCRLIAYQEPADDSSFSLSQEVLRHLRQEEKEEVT

As for `CC=CCC1COc2cc(C(N)=O)cc3nc(NC(=O)c4cc(C)nn4CC)n1c23` (centres unmarked) [Example 5, 3-(but-2-en-1-yl)-2-(1-ethyl-3-methyl-1H-pyrazole-5-carboxamido)-3,4-dihydro-5-oxa-1,2a-diazaacenaphthylene-7-carboxamide], the results for the EC50 (in test [1]; in the test on Human PBMC cells) were 3000 nM and 2000 nM, respectively. The ΔTm at 100 µM in test [2] came to 2.9 °C.
On to `C=CC[C@H]1COc2cc(C(N)=O)cc3nc(NC(=O)c4cc(C)nn4CCC)n1c23` [Example 11, (S)-3-allyl-2-(3-methyl-1-propyl-1H-pyrazole-5-carboxamido)-3,4-dihydro-5-oxa-1,2a-diazaacenaphthylene-7-carboxamide], for which, in test [2], the ΔTm at 100 µM is 5.5 °C. The EC50 in the test on Human PBMC cells stood at 17000 nM.
Consider `C/C=C\C[C@H]1COc2cc(C(N)=O)cc3nc(NC(=O)c4cc(C)nn4CC)n1c23` [Example 5-2, (S,Z)-3-(but-2-en-1-yl)-2-(1-ethyl-3-methyl-1H-pyrazole-5-carboxamido)-3,4-dihydro-5-oxa-1,2a-diazaacenaphthylene-7-carboxamide], for which the EC50 in test [1] came out at 1300 nM; in the test on Human PBMC cells, 1900 nM.
Take `C/C=C/C[C@H]1COc2cc(C(N)=O)cc3nc(NC(=O)c4cc(C)nn4CC)n1c23` [Example 5-3, (S,E)-3-(but-2-en-1-yl)-2-(1-ethyl-3-methyl-1H-pyrazole-5-carboxamido)-3,4-dihydro-5-oxa-1,2a-diazaacenaphthylene-7-carboxamide]: the EC50 in test [1] stood at 1300 nM; in the test with Human PBMC cells it was 1500 nM.
On to `CCn1nc(C)cc1C(=O)Nc1nc2cc(C(N)=O)cc(OC)c2n1C/C=C/C[C@H]1COc2cc(C(N)=O)cc3nc(NC(=O)c4cc(C)nn4CC)n1c23` [Example 15, (S,E)-3-(4-(5-carbamoyl-2-(1-ethyl-3-methyl-1H-pyrazole-5-carboxamido)-7-methoxy-1H-benzo[d]imidazol-1-yl)but-2-en-1-yl)-2-(1-ethyl-3-methyl-1H-pyrazole-5-carboxamido)-3,4-dihydro-5-oxa-1,2a-diazaacenaphthylene-7-carboxamide], for which the ΔTm at 100 µM in test [2] stood at 3 °C. In the test with Human PBMC cells, the EC50 was found to be 19000 nM.
With `CCn1nc(C)cc1C(=O)Nc1nc2cc(C(N)=O)ccc2n1CCC[C@H]1COc2cc(C(N)=O)cc3nc(NC(=O)c4cc(C)nn4CC)n1c23` [Example 18, (S)-3-(3-(5-carbamoyl-2-(1-ethyl-3-methyl-1H-pyrazole-5-carboxamido)-1H-benzo[d]imidazol-1-yl)propyl)-2-(1-ethyl-3-methyl-1H-pyrazole-5-carboxamido)-3,4-dihydro-5-oxa-1,2a-diazaacenaphthylene-7-carboxamide], the EC50 in test [1] was 160 nM; in the test on Human PBMC cells, 300 nM.
On to `CCn1nc(C)cc1C(=O)Nc1nc2cc(C(N)=O)cc(OCCCN3CCOCC3)c2n1CCC[C@H]1COc2cc(C(N)=O)cc3nc(NC(=O)c4cc(C)nn4CC)n1c23` [Example 22, (S)-3-(3-(5-carbamoyl-2-(1-ethyl-3-methyl-1H-pyrazole-5-carboxamido)-7-(3-morpholinopropoxy)-1H-benzo[d]imidazol-1-yl)propyl)-2-(1-ethyl-3-methyl-1H-pyrazole-5-carboxamido)-3,4-dihydro-5-oxa-1,2a-diazaacenaphthylene-7-carboxamide], for which the EC50 in test [1] turned out to be 100 nM; in the test on Human PBMC cells, 340 nM.
On to `CCn1nc(C)cc1C(=O)Nc1nc2cc(C(N)=O)cc(OC)c2n1CCC[C@H]1COc2cc(C(N)=O)cc3nc(NC(=O)c4cc(C)nn4CC)n1c23` [Example 13, (S)-3-(3-(5-carbamoyl-2-(1-ethyl-3-methyl-1H-pyrazole-5-carboxamido)-7-methoxy-1H-benzo[d]imidazol-1-yl)propyl)-2-(1-ethyl-3-methyl-1H-pyrazole-5-carboxamido)-3,4-dihydro-5-oxa-1,2a-diazaacenaphthylene-7-carboxamide], for which the EC50 is 30 nM in test [1] and 100 nM with Human PBMC cells. In addition, the ΔTm at 100 µM in test [2] worked out at 10.7 °C.
Consider `CCn1nc(C)cc1C(=O)Nc1nc2cc(C(N)=O)cc(OC)c2n1CC=C[C@H]1COc2cc(C(N)=O)cc3nc(NC(=O)c4cc(C)nn4CC)n1c23` [Example 14, (S)-3-(3-(5-carbamoyl-2-(1-ethyl-3-methyl-1H-pyrazole-5-carboxamido)-7-methoxy-1H-benzo[d]imidazol-1-yl)prop-1-en-1-yl)-2-(1-ethyl-3-methyl-1H-pyrazole-5-carboxamido)-3,4-dihydro-5-oxa-1,2a-diazaacenaphthylene-7-carboxamide], for which the ΔTm at 100 µM in test [2] is 4 °C. The compound further showed an EC50 with Human PBMC cells of 1800 nM.
For `C=CC[C@H]1COc2cc(C(N)=O)cc3nc(NC(=O)c4cc(C)nn4CC)n1c23` [Example 1, (S)-3-allyl-2-(1-ethyl-3-methyl-1H-pyrazole-5-carboxamido)-3,4-dihydro-5-oxa-1,2a-diazaacenaphthylene-7-carboxamide], the EC50 stood at 1600 nM in test [1] and 1100 nM in the test on Human PBMC cells. Also, the thermal shift (ΔTm) at 100 µM in test [2] was found to be 5.7 °C.
